17 compounds from patent US6436963B1 (priority 1998, dated 2002) can be followed below.

What all share (format): in vivo
One test concerns Puccinia recondita. Kind of test: Brown Rust (PUCCRT), protectant spray test on wheat seedlings. As to conditions: wheat (cultivar Monon), sprayed to run off at 100 ppm, inoculated after 24 hours.
The next test deals with Phytophthora infestans. As to conditions: tomatoes (cultivar Rutgers), sprayed to run off at 100 ppm, inoculated after 24 hours.
The test system of the next test is Erysiphe graminis. Kind of test: Powdery Mildew of Wheat (ERYSGT), protectant spray test on wheat seedlings. As to conditions: wheat (cultivar Monon), sprayed to run off at 100 ppm, inoculated after 24 hours.
The subject of another test is Leptosphaeria nodorum. Kind of test: Glume Blotch of Wheat (LEPTNO), protectant spray test on wheat seedlings. Particulars: wheat (cultivar Monon), sprayed to run off at 100 ppm, inoculated after 24 hours.

As for `CNC(=O)C(=NOC)c1ccccc1COc1ncc(C(OC2CCCCO2)c2ccccc2)cc1Cl` (mixture of isomers) [Example 57], the “PUCCRT control of plant disease” value with Puccinia recondita is given as “++ (++ = 75-100% control of plant disease)”. For the same compound, the “PHYTIN control of plant disease” value in the test with Phytophthora infestans is “++ (++ = 75-100% control of plant disease)”. In addition, the “ERYSGT control of plant disease” value in the test on Erysiphe graminis is recorded as “++ (++ = 75-100% control of plant disease)”. The “LEPTNO control of plant disease” value in the test on Leptosphaeria nodorum is “++ (++ = 75-100% control of plant disease)”.
In the case of `CNC(=O)C(=NOC)c1ccccc1COc1ncc(C(O)c2ccccc2)cc1Cl` (racemic) [Example 1], the “PUCCRT control of plant disease” value in the test with Puccinia recondita is “++ (++ = 75-100% control of plant disease)”. In addition, the “PHYTIN control of plant disease” value with Phytophthora infestans is reported as “++ (++ = 75-100% control of plant disease)”. Further, the “ERYSGT control of plant disease” value in the test with Erysiphe graminis is “++ (++ = 75-100% control of plant disease)”. The “LEPTNO control of plant disease” value in the test with Leptosphaeria nodorum is on record as “++ (++ = 75-100% control of plant disease)”.
Take `CNC(=O)C(=NOC)c1ccccc1COc1ncc(C(O)c2ccc(C)cc2C)cc1Cl` (racemic) [Example 6]: the “PUCCRT control of plant disease” value with Puccinia recondita is listed as “++ (++ = 75-100% control of plant disease)”. Further, in the test on Phytophthora infestans, the “PHYTIN control of plant disease” value was “++ (++ = 75-100% control of plant disease)”. For the same compound, the “ERYSGT control of plant disease” value with Erysiphe graminis is recorded as “++ (++ = 75-100% control of plant disease)”. Moreover, in the test with Leptosphaeria nodorum, the “LEPTNO control of plant disease” value is listed as “− (− = 0-24% control of plant disease)”.
`CNC(=O)C(=NOC)c1ccccc1COc1ncc(C(O)c2ccc(F)cc2)cc1Cl` (racemic) [Example 7]: the “PUCCRT control of plant disease” value with Puccinia recondita was “++ (++ = 75-100% control of plant disease)”. Further, the “PHYTIN control of plant disease” value in the test on Phytophthora infestans was “++ (++ = 75-100% control of plant disease)”. Further, the “ERYSGT control of plant disease” value in the test on Erysiphe graminis is on record as “++ (++ = 75-100% control of plant disease)”. The “LEPTNO control of plant disease” value in the test on Leptosphaeria nodorum was “++ (++ = 75-100% control of plant disease)”.
As to `CNC(=O)C(=NOC)c1ccccc1COc1ncc(C(O)c2ccc(Cl)cc2)cc1Cl` (racemic) [Example 9], the “PUCCRT control of plant disease” value with Puccinia recondita is listed as “++ (++ = 75-100% control of plant disease)”. Also, the “PHYTIN control of plant disease” value with Phytophthora infestans is reported as “++ (++ = 75-100% control of plant disease)”. Besides, the “ERYSGT control of plant disease” value in the test with Erysiphe graminis is listed as “++ (++ = 75-100% control of plant disease)”. Also, in the test with Leptosphaeria nodorum, the “LEPTNO control of plant disease” value is “++ (++ = 75-100% control of plant disease)”.
As to `CNC(=O)C(=NOC)c1ccccc1COc1ncc(C(O)c2ccc(C(C)(C)C)cc2)cc1Cl` (racemic) [Example 10], in the test with Puccinia recondita, the “PUCCRT control of plant disease” value is listed as “++ (++ = 75-100% control of plant disease)”. Further, the “PHYTIN control of plant disease” value with Phytophthora infestans is recorded as “++ (++ = 75-100% control of plant disease)”. For the same compound, the “ERYSGT control of plant disease” value with Erysiphe graminis is “++ (++ = 75-100% control of plant disease)”. Besides, the “LEPTNO control of plant disease” value in the test with Leptosphaeria nodorum was “++ (++ = 75-100% control of plant disease)”.
In the case of `CNC(=O)C(=NOC)c1ccccc1COc1ncc(C(O)c2cccc(C(F)(F)F)c2)cc1Cl` (racemic) [Example 12], the “PUCCRT control of plant disease” value in the test on Puccinia recondita was “++ (++ = 75-100% control of plant disease)”. Also, the “PHYTIN control of plant disease” value in the test on Phytophthora infestans is “++ (++ = 75-100% control of plant disease)”. Also, the “ERYSGT control of plant disease” value with Erysiphe graminis is on record as “++ (++ = 75-100% control of plant disease)”. The “LEPTNO control of plant disease” value with Leptosphaeria nodorum was “++ (++ = 75-100% control of plant disease)”.
In the case of `CNC(=O)C(=NOC)c1ccccc1COc1ncc(C(C)OCc2ccc(OC)cc2)cc1Cl` (racemic) [Example 17], in the test on Puccinia recondita, the “PUCCRT control of plant disease” value was “++ (++ = 75-100% control of plant disease)”. Moreover, in the test with Phytophthora infestans, the “PHYTIN control of plant disease” value is recorded as “− (− = 0-24% control of plant disease)”. Moreover, in the test with Erysiphe graminis, the “ERYSGT control of plant disease” value is “++ (++ = 75-100% control of plant disease)”. Further, in the test on Leptosphaeria nodorum, the “LEPTNO control of plant disease” value is reported as “++ (++ = 75-100% control of plant disease)”.
As to `CNC(=O)C(=NOC)c1ccccc1COc1ncc(C(C)OC(=O)C(C)(C)C)cc1Cl` (racemic) [Example 24], the “PUCCRT control of plant disease” value in the test on Puccinia recondita was “++ (++ = 75-100% control of plant disease)”. The “PHYTIN control of plant disease” value in the test with Phytophthora infestans is “− (− = 0-24% control of plant disease)”. In addition, the “ERYSGT control of plant disease” value in the test with Erysiphe graminis was “++ (++ = 75-100% control of plant disease)”. For the same compound, the “LEPTNO control of plant disease” value with Leptosphaeria nodorum is given as “++ (++ = 75-100% control of plant disease)”.
Turning to `CNC(=O)C(=NOC)c1ccccc1COc1ncc(C(C)(O)c2ccccc2)cc1Cl` (racemic) [Example 26], the “PUCCRT control of plant disease” value in the test on Puccinia recondita was “++ (++ = 75-100% control of plant disease)”. Moreover, the “PHYTIN control of plant disease” value in the test with Phytophthora infestans is on record as “++ (++ = 75-100% control of plant disease)”. Also, the “ERYSGT control of plant disease” value with Erysiphe graminis is reported as “++ (++ = 75-100% control of plant disease)”. Besides, the “LEPTNO control of plant disease” value in the test on Leptosphaeria nodorum is “++ (++ = 75-100% control of plant disease)”.
In the case of `CNC(=O)C(=NOC)c1ccccc1COc1ncc(C(C)OCc2ccc(Cl)cc2)cc1Cl` (racemic) [Example 27], in the test on Puccinia recondita, the “PUCCRT control of plant disease” value was “++ (++ = 75-100% control of plant disease)”. The “PHYTIN control of plant disease” value in the test on Phytophthora infestans is “− (− = 0-24% control of plant disease)”. Moreover, the “ERYSGT control of plant disease” value in the test with Erysiphe graminis is listed as “++ (++ = 75-100% control of plant disease)”. Besides, in the test with Leptosphaeria nodorum, the “LEPTNO control of plant disease” value is given as “++ (++ = 75-100% control of plant disease)”.
As for `CNC(=O)C(=NOC)c1ccccc1COc1ncc(C(OC(C)=O)c2ccccc2)cc1Cl` (racemic) [Example 28], the “PUCCRT control of plant disease” value in the test with Puccinia recondita is recorded as “++ (++ = 75-100% control of plant disease)”. Besides, the “PHYTIN control of plant disease” value in the test with Phytophthora infestans was “− (− = 0-24% control of plant disease)”. Besides, the “ERYSGT control of plant disease” value in the test on Erysiphe graminis was “− (− = 0-24% control of plant disease)”. In addition, in the test with Leptosphaeria nodorum, the “LEPTNO control of plant disease” value is “++ (++ = 75-100% control of plant disease)”.
For the compound `CNC(=O)C(=NOC)c1ccccc1COc1ncc(C(OC(=O)c2ccccc2)c2ccccc2)cc1Cl` (racemic) [Example 29], in the test on Puccinia recondita, the “PUCCRT control of plant disease” value is listed as “++ (++ = 75-100% control of plant disease)”. Further, the “PHYTIN control of plant disease” value in the test with Phytophthora infestans was “+ (+ = 25-74% control of plant disease)”. Further, in the test with Erysiphe graminis, the “ERYSGT control of plant disease” value is “+ (+ = 25-74% control of plant disease)”. The “LEPTNO control of plant disease” value in the test with Leptosphaeria nodorum is on record as “++ (++ = 75-100% control of plant disease)”.
Regarding `CNC(=O)C(=NOC)c1ccccc1COc1ncc(C(OC(=O)C(C)(C)C)c2ccccc2)cc1Cl` (racemic) [Example 30], in the test on Puccinia recondita, the “PUCCRT control of plant disease” value is “++ (++ = 75-100% control of plant disease)”. In the test with Phytophthora infestans, the “PHYTIN control of plant disease” value is recorded as “++ (++ = 75-100% control of plant disease)”. The “ERYSGT control of plant disease” value with Erysiphe graminis was “+ (+ = 25-74% control of plant disease)”. In addition, the “LEPTNO control of plant disease” value with Leptosphaeria nodorum is reported as “++ (++ = 75-100% control of plant disease)”.
In the case of `CNC(=O)C(=NOC)c1ccccc1COc1ncc(C(OC(=O)C(C)C)c2ccccc2)cc1Cl` (racemic) [Example 32], the “PUCCRT control of plant disease” value with Puccinia recondita is “++ (++ = 75-100% control of plant disease)”. In addition, the “PHYTIN control of plant disease” value with Phytophthora infestans is recorded as “− (− = 0-24% control of plant disease)”. Further, the “ERYSGT control of plant disease” value in the test on Erysiphe graminis is recorded as “− (− = 0-24% control of plant disease)”. The “LEPTNO control of plant disease” value with Leptosphaeria nodorum was “− (− = 0-24% control of plant disease)”.
Turning to `CNC(=O)C(=NOC)c1ccccc1COc1ncc(C(OC(C)=O)c2ccsc2)cc1Cl` (stereo not shown) [Example 121], the “PHYTIN control of plant disease” value with Phytophthora infestans is listed as “++ (++ = 75-100% control of plant disease)”. Further, the “ERYSGT control of plant disease” value with Erysiphe graminis was “++ (++ = 75-100% control of plant disease)”.
Turning to `CCOC(C)(c1ccccc1)c1cnc(OCc2ccccc2C(=NOC)C(=O)NC)c(Cl)c1` (stereo not shown) [Example 122], the “PHYTIN control of plant disease” value in the test on Phytophthora infestans is listed as “− (− = 0-24% control of plant disease)”. Further, in the test on Erysiphe graminis, the “ERYSGT control of plant disease” value is “++ (++ = 75-100% control of plant disease)”.
